Laboratory results published in publication PMC10064984, “Anti-cyclooxygenase, anti-glycation, and anti-skin aging effect of Dendrobium officinale flowers’ aqueous extract and its phytochemical validation in aging” (Frontiers in Immunology, 2023).
“And” between values parts separate entries of the source, which are not always exact repeats. Identical values can stand only once. Like-named read-outs stand apart in the source and are kept apart here.

What was measured:
[1] = Fluorescent AGEs formation in a BSA-fructose/glucose system; assay type: biochemical; conditions: for IC50: read-out: BSA-glycation IC50; for inhibition of fluorescent AGEs formation (BSA-抗糖化), 平均 (mean): mean of 3 replicates
How it was run: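 BSA glycated in vitro with D-glucose and D-fructose while test samples, dissolved in DMSO:water (1:4), were present. Percent inhibition of fluorescent AGE formation calculated from fluorescence corrected for sample-only and BSA-free blanks; triplicate.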

[2] = system: CML expression in MGO-induced HDFs; assay: Glycation cell assay: CML expression in MGO-induced HDFs (IF); assay type: cell-based, human; conditions: positive compound
Experimental: Based on previously reported methods ([25]), human primary dermal fibroblasts (HDFs) were induced by MGO to establish a cell model of high CML expression.
HDFs were cultured in high-glucose DMEM supplemented with 10% FBS containing 100 µg/ml of PS at 37°C in a humidified 5% CO2 incubator. Cell viability was assessed using the CCK-8 kit. HDFs were cultured in 12-well plates to approximately 70% confluence and then treated with 0.5 mmol/L of MGO for 48 h to induce glycation and the formation of CML. Subsequently, different concentrations of samples were added and co-cultured with MGO for an additional 48 h. Cells were then washed once with PBS and fixed in polyformaldehyde overnight at 4°C. Triton-X-100 solution (0.1%) was assigned to fixed cells for 5 min at room temperature to improve cell membrane permeability. After washing twice with PBS, cells were blocked in 1% BSA for 1 h, followed by incubation with the primary CML antibody (1:50) overnight at 4°C. […] Counterstaining was performed by adopting anti-fluorescence quenching and sealing liquid containing DAPI, followed by visualisation and fluorescence image capture using a microscope (Leica, Germany). ImageJ software was used to quantify CML expression from different images randomly selected in each group.

DPPH· scavenging = assay type: biochemical; conditions: mean ± SD, n = 3
[3] = ABTS·+ decolourisation capacity; assay type: biochemical; conditions: mean ± SD, n = 3
How it was run: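 ABTS·+ working solution in 0.2 M phosphate buffer, pH 7.4, was adjusted to A729 0.8 ± 0.05, and 100 μl was mixed with 200 μl sample; absorbance was read at 729 nm after 10 min, in triplicate. Inhibition was taken relative to a phosphate-buffer control, and IC50 was obtained graphically from dose-inhibition curves.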

[4] = FRAP total antioxidant capacity; assay type: biochemical; conditions: lower part of sheet (compound series);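 further: colourimetric FRAP kit assay read as absorbance in 96-well plates, values as mM FeSO4 via standard curve, EC1 being sample concentration matching 1.0 mmol/L FeSO4, Trolox positive control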
COX-2 = target: T1, COX-2 (Homo sapiens, UniProt P35354); assay: Anti-COX-2 assay (COX-2 Inhibitor Screening Kit); assay type: biochemical
T1 construct: purchased Beyotime S0168
T1 sequence (P35354 18-604): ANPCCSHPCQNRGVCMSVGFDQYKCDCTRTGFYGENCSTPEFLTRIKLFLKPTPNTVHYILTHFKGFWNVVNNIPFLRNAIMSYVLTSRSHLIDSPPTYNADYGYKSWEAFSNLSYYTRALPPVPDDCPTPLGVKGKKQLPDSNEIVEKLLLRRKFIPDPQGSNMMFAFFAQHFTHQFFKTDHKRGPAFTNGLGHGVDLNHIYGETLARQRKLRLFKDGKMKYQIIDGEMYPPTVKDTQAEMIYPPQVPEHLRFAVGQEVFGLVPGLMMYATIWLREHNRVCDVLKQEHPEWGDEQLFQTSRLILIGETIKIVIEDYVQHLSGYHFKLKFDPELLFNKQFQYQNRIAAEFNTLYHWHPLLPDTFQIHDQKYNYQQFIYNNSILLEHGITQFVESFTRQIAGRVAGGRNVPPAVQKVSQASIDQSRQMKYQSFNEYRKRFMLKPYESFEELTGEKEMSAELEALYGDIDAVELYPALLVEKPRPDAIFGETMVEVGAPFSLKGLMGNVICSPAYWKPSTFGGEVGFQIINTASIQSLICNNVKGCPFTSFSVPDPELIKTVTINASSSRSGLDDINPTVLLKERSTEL

[5] = Online UPLC-PDA-MS-ABTS·+ scavenging (postcolumn derivatisation); conditions: within DOF extract
Experimental: Online identification of antioxidant components of DOF extract was performed using a UPLC system (Milford, MA, USA) consisting of a Waters photodiode array detector and a Waters postcolumn derivatisation system supplying fresh ABTS solution (UPLC-PDA-QDa-ABTS). […] The detection wavelengths were set at 280 and 734 nm, and the injection volume of the sample was 10 μl.
To detect radical scavengers, the UPLC system was coupled with a Waters pump, which supplied freshly prepared ABTS·+ solution into a reaction coil (15 m, 0.25 mm ID) with a flow rate of 0.2 ml/min at 37°C. Negative peaks were recorded based on a decrease of absorbance at 729 nm after the reaction of individual compounds with the ABTS·+ radical. For preliminary identification of compounds, a Waters Acquity QDa mass detector in negative ionisation mode was connected in series to PDA with the following parameters: electrospray ion source; cone voltage, 15 V; atomiser, N2; and scanning range, 100–800 m/z.

type I collagen in HDFs = assay: Collagen type I immunofluorescence staining in HDFs; assay type: cell-based, human; conditions: for COL I staining: VC positive control, NT = 100%, replicates and AVE, listed as VC
Experimental: (§1) HDFs were cultured in DMEM with 10% (v/v) FBS and 1% PS at 37°C in a humidified 5% CO2 incubator. Cells were subcultured using pancreatin solution after reaching confluence. All experiments were performed between the third and eighth passages.
(§2) The synthesis of collagen types I and III was detected using IF ([26]) and ELISA ([27]). HDFs were digested and seeded in a 24-well culture plate on slides at a density of 50,000 cells/well in a complete medium. After reaching 80% confluency, cells were starved with the medium in the absence of serum for 16 h. Cells were then treated with positive controls or active samples (prepared in medium without serum) for an additional 48 h. For analysis and visualisation of types I and III collagens, the supernatants and remaining cell slides were both collected and analysed using ELISA kits and the IF staining method, respectively.
(§3) Collected supernatants were centrifuged at 10,000 rpm for 10 min and used for types I and III collagen ELISA, according to the manufacturer’s protocol. The remaining cell slides were washed once with PBS and fixed in polyformaldehyde overnight at 4°C. Subsequently, the slides were treated with 0.5% Triton-X100 for 5 min. After washing, cells were blocked with 1% BSA at room temperature for 1 h. Cells were then incubated with types I and type III collagen primary antibodies (1:100) for 2 h at room temperature. […] Finally, the nuclei were counter-stained with DAPI, and relevant fluorescent images were captured using a microscope. ImageJ software was used to quantify collagen expression from different images randomly selected in each group.

[6] = system: type III collagen in HDFs; assay: Collagen type III immunofluorescence staining in HDFs; assay type: cell-based, human; conditions: for COL III staining: VC positive control, NT = 100%, replicates and AVE, listed as VC
Experimental: as §1, §2, §3

[7] = system: secreted type I collagen of HDFs; assay: Extracellular collagen type I ELISA on HDFs; assay type: cell-based, human; conditions: for COL I (ELISA): VC positive control, replicates and AVE, listed as VC
Experimental: as §1, §2, §3

[8] = system: secreted type III collagen of HDFs; assay: Extracellular collagen type III ELISA on HDFs; assay type: cell-based, human; conditions: VC positive control, replicates and AVE, listed as VC
Experimental: as §1, §2
Collected supernatants were centrifuged at 10,000 rpm for 10 min and used for types I and III collagen ELISA, according to the manufacturer’s protocol. The remaining cell slides were washed once with PBS and fixed in polyformaldehyde overnight at 4°C. Subsequently, the slides were treated with 0.5% Triton-X100 for 5 min. After washing, cells were blocked with 1% BSA at room temperature for 1 h. […] ImageJ software was used to quantify collagen expression from different images randomly selected in each group.

SMILES: Cl.N=C(N)NN [AG, Aminoguanidine hydrochloride, reference compound]
- fluorescent AGEs IC50 [1]: 177.3 ± 11.6 µg/mL
- inhibition of fluorescent AGEs formation (BSA-抗糖化), single replicate ([1]; 15.625 ug/ml): -1.16% and 3.22%
- IC50 ([1]; lower part of sheet (compound series)): 1620 ± 111 µM
- IC50 ([1]; mean ± SD, n = 3): 1600 µM
- BSA-glycation IC50 ([1]; upper part of sheet (extract series)): 178.47 ± 12.27 µg/mL
- IC50 ([1]; upper part of sheet (extract series), positive control also given in μM): 1620 ± 111 µM
- inhibition of glycation (CML) [2]: 88.11%

SMILES: O=C(O)CC(=O)OCC1OC(Oc2c(-c3ccc(O)c(O)c3)oc3cc(O)cc(O)c3c2=O)C(O)C(O)C1O (stereo not drawn) [compound 27, Quercetin 3-O-(6″-malonyl-glucoside)]
- IC50 (DPPH· scavenging): 24.7 ± 0.96 µM
- IC50 [3]: 28.4 ± 0.47 µM
- FRAP EC1 [4]: 826.7 ± 98.5 µM
- COX-2 inhibition (in words) (COX-2): great COX-2 inhibition
- inhibition at 3.125 µM (COX-2; 3.125 μM, single replicates): 24.6%
- COX-2 inhibition (COX-2; 3.125 μM, single replicates, listed as T11, 3.125 µM): 20.59% and 27.90%
- COX-2 inhibition (COX-2; 6.25 μM, single replicates, listed as T11, 6.25 µM): 14.74% and 29.06% and 32.72%
- inhibition at 12.5 µM (COX-2; 12.5 μM, single replicates): 58.4%
- COX-2 inhibition (COX-2; 12.5 μM, single replicates, listed as T11, 12.5 µM): 54.43% and 66.15%
- inhibition at 25 µM (COX-2; 25 μM, single replicates): 71.8%
- COX-2 inhibition (COX-2; 25 μM, single replicates, listed as T11, 25 µM): 72.43% and 76.32%
- inhibition at 50 µM (COX-2; 50 μM, single replicates): 73.1%
- COX-2 inhibition (COX-2; 50 μM, single replicates, listed as T11, 50 µM): 74.00% and 78.80%
- inhibition at 100 µM (COX-2; 100 μM, single replicates): 77.6%
- COX-2 inhibition (COX-2; 100 μM, single replicates, listed as T11, 100 µM): 75.00% and 79.64%
- inhibition at 200 µM (COX-2; 200 μM, single replicates): 75.5%
- COX-2 inhibition (COX-2; 200 μM, single replicates, listed as T11, 200 µM): 78.98% and 87.56%
- IC50 (COX-2; mean ± SD, n = 3, nd, not detected, read-out: COX-2 IC50): 12.5 ± 2.9 µM
- IC50 (COX-2; supplement sheet COX, read-out: COX-2 IC50, single replicate): 13.5 µM and 9.23 µM and 14.8 µM
- inhibition of fluorescent AGEs formation (BSA-抗糖化), single replicate ([1]; 15.625 µM, individual replicate, listed as T11, 15.625 µM): 10.51% and 15.35% and 23.11%
- inhibition of fluorescent AGEs formation (BSA-抗糖化), 平均 (mean) ([1]; 15.625 µM): 16.32%
- inhibition of fluorescent AGEs formation (BSA-抗糖化), single replicate ([1]; 31.25 µM, individual replicate, listed as T11, 31.25 µM): 5.08% and 5.86% and 10.67%
- inhibition of fluorescent AGEs formation (BSA-抗糖化), 平均 (mean) ([1]; 31.25 µM): 7.20%
- inhibition of fluorescent AGEs formation (BSA-抗糖化), single replicate ([1]; 62.5 µM, individual replicate, listed as T11, 62.5 µM): 17.13% and 15.89% and 16.80%
- inhibition of fluorescent AGEs formation (BSA-抗糖化), 平均 (mean) ([1]; 62.5 µM): 16.61%
- inhibition of fluorescent AGEs formation (BSA-抗糖化), single replicate ([1]; 125 µM, individual replicate, listed as T11, 125 µM): 26.98% and 29.78% and 30.07%
- inhibition of fluorescent AGEs formation (BSA-抗糖化), 平均 (mean) ([1]; 125 µM): 28.94%
- inhibition of fluorescent AGEs formation (BSA-抗糖化), single replicate ([1]; 250 µM, individual replicate, listed as T11, 250 µM): 45.50% and 47.09% and 47.76%
- inhibition of fluorescent AGEs formation (BSA-抗糖化), 平均 (mean) ([1]; 250 µM): 46.78%
- inhibition of fluorescent AGEs formation (BSA-抗糖化), single replicate ([1]; 500 µM, individual replicate, listed as T11, 500 µM): 61.62% and 62.32% and 63.30%
- inhibition of fluorescent AGEs formation (BSA-抗糖化), 平均 (mean) ([1]; 500 µM): 62.41%
- inhibition of fluorescent AGEs formation (BSA-抗糖化), single replicate ([1]; 1000 µM, individual replicate, listed as T11, 1000 µM): 77.56% and 77.94% and 77.85%
- inhibition of fluorescent AGEs formation (BSA-抗糖化), 平均 (mean) ([1]; 1000 µM): 77.78%
- inhibition of fluorescent AGEs formation (BSA-抗糖化), single replicate ([1]; 2000 µM, individual replicate, listed as T11, 2000 µM): 88.53% and 88.63% and 88.83%
- inhibition of fluorescent AGEs formation (BSA-抗糖化), 平均 (mean) ([1]; 2000 µM): 88.66%
- inhibition of fluorescent AGEs formation (BSA-抗糖化), single replicate ([1]; 4000 µM (series head 'T9 4000µM', 2-fold dilutions), individual replicate, listed as T11): 94.35% and 94.74% and 94.79%
- inhibition of fluorescent AGEs formation (BSA-抗糖化), 平均 (mean) ([1]; 4000 µM): 94.62%
- IC50 ([1]; mean ± SD, n = 3): 288 ± 17.9 µM
- online ABTS radical scavenging (size of negative peaks at 734 nm) [5]: strongest ABTS radical scavengers

SMILES: O=C1O[C@H]([C@@H](O)CO)C(O)=C1O [vitamin C]
- collagen type I expression (IF) (type I collagen in HDFs; VC 200 μg/ml, positive control): 190.20 % of control
- COL I staining (type I collagen in HDFs): 173.88% and 170.79% and 188.58% and 168.29% and 249.47%
- COL I staining (type I collagen in HDFs; mean): 190.20%
- collagen type III expression (IF) ([6]; VC 200 μg/ml, positive control): 125.90 % of control
- COL III staining [6]: 118.22% and 137.59% and 116.52% and 131.28%
- COL III staining ([6]; mean): 125.90%
- COL I (ELISA) [7]: 646.77 pg/mL and 611.41 pg/mL and 656.93 pg/mL
- COL I (ELISA) ([7]; mean): 638.37 pg/mL
- increase of secreted collagen type I levels ([7]; VC, 48 h, culture medium): 21.94%
- COL III (ELISA) [8]: 2.70 ng/mL and 2.97 ng/mL and 3.15 ng/mL
- COL III (ELISA) ([8]; mean): 2.94 ng/mL
